Usually EC50 stands for the midpoint of the concentration-response curve. As a reminder, the IC50 is the concentration that gives 50% inhibition.

One test relates to TNFα. Kind of test: Cot Monocyte TNFα Cell Based Assay.
The next test deals with Human Cot (Homo sapiens (Human), UniProt P41279). Kind of test: High Throughput Cot Biochemical Assay. The settings on record: Cot HTRF (TR-FRET) biochemical assay.
Where [1] appears, read: Homo sapiens, Monocyte, read-out: EC50 TNF, LPS-stimulated human monocytes, TNFα.
Setting [2] is: read-out: EC50 TNF, LPS-stimulated human monocytes, TNFα.

Structures are written as SMILES. Read-outs that look alike come from different tables or passages of the source.

Human Cot, sequence (P41279 30-397): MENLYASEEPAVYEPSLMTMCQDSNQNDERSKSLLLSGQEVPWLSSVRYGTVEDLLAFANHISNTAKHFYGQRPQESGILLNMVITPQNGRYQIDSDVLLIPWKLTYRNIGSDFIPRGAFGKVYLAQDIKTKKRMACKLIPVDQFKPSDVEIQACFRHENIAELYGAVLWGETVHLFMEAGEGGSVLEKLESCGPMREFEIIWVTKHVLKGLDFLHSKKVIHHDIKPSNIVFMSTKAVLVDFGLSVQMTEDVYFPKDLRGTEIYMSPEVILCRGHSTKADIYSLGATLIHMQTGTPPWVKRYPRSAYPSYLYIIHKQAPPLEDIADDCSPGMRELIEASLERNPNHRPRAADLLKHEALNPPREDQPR

`Cc1ncccc1[C@H](Nc1cc(Cl)c2ncc(C#N)c(Nc3cnc(F)c(F)c3)c2c1)c1c[nH]nn1` [Example 173, (S)-8-chloro-4-((5,6-difluoropyridin-3-yl)amino)-6-(((2-methylpyridin-3-yl)(1H-1,2,3-triazol-4-yl)methyl)amino)quinoline-3-carbonitrile]: the EC50 in the test with TNFα (setting [1]) was 1110 nM. Besides, at Human Cot (IC50 HTRF), 7 nM corresponded to half-maximal inhibition (IC50).
Consider `CC[C@@H](Nc1c(C#N)cnc2c(Cl)cc(N[C@@H](c3cccnc3)c3cn([C@H]4[C@@H]5CN(C6COC6)C[C@@H]54)nn3)cc12)c1ccccc1` [Example 174, 8-chloro-6-(((S)-(1-((1 R,5S,6s)-3-(oxetan-3-yl)-3-azabicyclo[3.1,0]hexan-6-yl)-1H-1,2,3-triazol-4-yl)(pyridin-3-yl)methyl)amino)-4-(((R)-1-phenylpropyl)amino)quinoline-3-carbonitrile], for which the EC50 with TNFα (setting [2]) amounted to 54 nM. For the same molecule, the IC50 on Human Cot (read-out: IC50 HTRF) came to 2 nM.
With `CC[C@@H](Nc1c(C#N)cnc2c(Cl)cc(N[C@@H](c3cccnc3)c3cn(CC#N)nn3)cc12)c1ccccc1` [Example 175, 8-chloro-6-(((S)-(1-(cyanomethyl)-1H-1,2,3-triazol-4-yl)(pyridin-3-yl)methyl)amino)-4-(((R)-1-phenylpropyl)amino)quinoline-3-carbonitrile], the EC50 with TNFα (setting [1]) was found to be 73 nM. Moreover, on Human Cot (IC50 HTRF), inhibition was half-maximal at 3 nM (IC50).
Taken in the same sequence, the figures for `CC[C@@H](Nc1c(C#N)cnc2c(Cl)cc(N[C@@H](c3cccnc3)c3cn(CCCN4CCCC4)nn3)cc12)c1ccccc1` [Example 176, 8-chloro-4-(((R)-1-phenylpropyl)amino)-6-(((S)-pyridin-3-yl(1-(3-(pyrrolidin-1-yl)propyl)-1H-1,2,3-triazol-4-yl)methyl)amino)quinoline-3-carbonitrile] were 31 nM and 2 nM.
`CC[C@@H](Nc1c(C#N)cnc2c(Cl)cc(N[C@@H](c3cccnc3)c3cn(CCF)nn3)cc12)c1ccccc1` [Example 177, 8-chloro-6-(((S)-(1-(2-fluoroethyl)-1H-1,2,3-triazol-4-yl)(pyridin-3-yl)methyl)amino)-4-(((R)-1-phenylpropyl)amino)quinoline-3-carbonitrile]: in the test on TNFα (setting [1]), the EC50 turned out to be 79 nM. Moreover, at Human Cot (IC50 HTRF), the midpoint of inhibition, the IC50, lay at 2 nM.
Turning to `N#Cc1cnc2c(Cl)cc(N[C@@H](c3cccnc3)c3c[nH]nn3)cc2c1N[C@@H](CCO)c1ccccc1` [Example 178, 8-chloro-4-(((S)-3-hydroxy-1-phenylpropyl)amino)-6-(((S)-pyridin-3-yl(1H-1,2,3-triazol-4-yl)methyl)amino)quinoline-3-carbonitrile], in the test on TNFα (setting [1]), the EC50 worked out at 931 nM. The midpoint of inhibition at Human Cot (IC50 HTRF), the IC50, lay at 7 nM.
As to `N#Cc1cnc2c(Cl)cc(N[C@@H](c3cccnc3)c3c[nH]nn3)cc2c1N[C@H](CCO)c1ccccc1` [Example 179, 8-chloro-4-(((R)-3-hydroxy-1-phenylpropyl)amino)-6-(((S)-pyridin-3-yl(1H-1,2,3-triazol-4-yl)methyl)amino)quinoline-3-carbonitrile], the EC50 in the test on TNFα (setting [1]) is more than 10000 nM. The IC50 at Human Cot (IC50 HTRF) stood at 265 nM.
Regarding `CC[C@@H](Nc1c(C#N)cnc2c(Cl)cc(N[C@@H](c3cccnc3)c3cn([C@H]4[C@@H]5CNC[C@@H]54)nn3)cc12)c1ccccc1` [Example 180, 6-(((S)-(1-((• R,5S,6s)-3-azabicyclo[3.1 0]hexan-6-yl)-1H-1,2,3-triazol-4-yl)(pyridin-3-yl)methyl)amino)-8-chloro-4-(((R)-1-phenylpropyl)amino)-quinoline-3-carbonitrile], the EC50 in the test on TNFα (setting [2]) turned out to be 104 nM. For the same molecule, the IC50 on Human Cot (read-out: IC50 HTRF) worked out at 1 nM.
`N#Cc1cnc2c(Cl)cc(N[C@@H](c3cccnc3)c3cn(C4COC4)nn3)cc2c1N[C@H](CCO)c1ccccc1` [Example 183, 8-chloro-4-(((R)-3-hydroxy-1-phenylpropyl)amino)-6-(((S)-(1-(oxetan-3-yl)-1H-1,2,3-triazol-4-yl)(pyridin-3-l)methyl)amino)-quinoline-3-carbonitrile]: the EC50 in the test with TNFα (setting [2]) was more than 10000 nM. Besides, the IC50 on Human Cot (read-out: IC50 HTRF) worked out at 357 nM.
`CC(C)n1cc([C@@H](Nc2cc(Cl)c3ncc(C#N)c(N[C@@H](CCO)c4ccccc4)c3c2)c2cccnc2)nn1` [Example 184, 8-chloro-4-(((S)-3-hydroxy-1-phenylpropyl)amino)-6-(((S)-(1-isopropyl-1H-1,2,3-triazol-4-yl)(pyridin-3-l)methyl)amino)-quinoline-3-carbonitrile]: in the test with TNFα (setting [2]), the EC50 turned out to be 387 nM. At Human Cot (read-out: IC50 HTRF), the IC50 is 8 nM.
Take `CC(C)n1cc([C@@H](Nc2cc(Cl)c3ncc(C#N)c(N[C@H](CCO)c4ccccc4)c3c2)c2cccnc2)nn1` [Example 185, 8-chloro-4-(((R)-3-hydroxy-1-phenylpropyl)amino)-6-(((S)-(1-isopropyl-1H-1,2,3-triazol-4-yl)(pyridin-3-yl)methyl)amino)quinoline-3-carbonitrile]: the EC50 in the test on TNFα (setting [1]) amounted to 9740 nM. At Human Cot (IC50 HTRF), this molecule came in with an IC50 of 305 nM.
Taken in the same sequence, the figures for `CC(C)(O)[C@@H](Nc1c(C#N)cnc2c(Cl)cc(N[C@@H](c3cccnc3)c3c[nH]nn3)cc12)c1ccccc1` [Example 186, 8-chloro-4-(((S)-2-hydroxy-2-methyl-1-phenylpropyl)amino)-6-(((S)-pyridin-3-yl(1H-1,2,3-triazol-4-yl)methyl)amino)quinoline-3-carbonitrile] were 6620 nM and 118 nM.
For `CC(C)n1cc([C@@H](Nc2cc(Cl)c3ncc(C#N)c(N[C@@H](c4ccccc4)C(C)(C)O)c3c2)c2cccnc2)nn1` [Example 187, 8-chloro-4-(((S)-2-hydroxy-2-methyl-1-phenylpropyl)amino)-6-(((S)-(1-isopropyl-1H-1,2,3-triazol-4-yl)(pyridin-3-yl)methyl)amino)-quinoline-3-carbonitrile] the same measures were 2110 nM and 67 nM.
Regarding `CC(C)(O)[C@H](Nc1c(C#N)cnc2c(Cl)cc(N[C@@H](c3cccnc3)c3c[nH]nn3)cc12)c1ccccc1` [Example 188, 8-chloro-4-(((R)-2-hydroxy-2-methyl-1-phenylpropyl)amino)-6-(((S)-pyridin-3-yl(1H-1,2,3-triazol-4-yl)methyl)amino)quinoline-3-carbonitrile], in the test with TNFα (setting [1]), the EC50 was more than 10000 nM. Also, the IC50 on Human Cot (IC50 HTRF) was more than 10000 nM.
Turning to `N#Cc1cnc2c(Cl)cc(N[C@@H](c3cccnc3)c3cn(CCF)nn3)cc2c1Nc1cnc(F)c(F)c1` [Example 189, (S)-8-chloro-4-((5,6-difluoropyridin-3-yl)amino)-6-(((1-(2-fluoroethyl)-1H-1,2,3-triazol-4-yl)(pyridin-3-yl)methyl)amino)quinoline-3-carbonitrile], the EC50 in the test with TNFα (setting [1]) was 1060 nM. This molecule returned an IC50 on Human Cot (IC50 HTRF) of 8 nM.
For `CC[C@@H](Nc1c(C#N)cnc2c(Cl)cc(N[C@@H](c3cccnc3)c3cn(C4CC4)nn3)cc12)c1ccccc1` [Example 191, 8-chloro-6-(((S)-(1-cyclopropyl-1H-1,2,3-triazol-4-yl)(pyridin-3-yl)methyl)amino)-4-(((R)-1-phenylpropyl)amino)quinoline-3-carbonitrile] the same measures were 104 nM and 2 nM.
In the case of `CC[C@@H](Nc1c(C#N)cnc2c(Cl)cc(N[C@@H](c3cccnc3)c3cn(C(C)(C)C)nn3)cc12)c1ccccc1` [Example 192, 6-(((S)-(1-(tert-butyl)-1H-1,2,3-triazol-4-yl)(pyridin-3-yl)methyl)amino)-8-chloro-4-(((R)-1-phenylpropyl)arnino)quinoline-3-carbonitrile], the EC50 in the test with TNFα (setting [2]) was 186 nM. The IC50 on Human Cot (read-out: IC50 HTRF) was determined as 3 nM.
